Experimental data reported in PubChem BioAssay (NCI).
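Grown in 96-well plates, cells were treated for 48 hours with each compound at five concentrations. Insufficient inhibition: endpoint recorded as highest concentration tested. TGI marks complete inhibition of growth.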

What was measured:
Test in all cases: NCI anticancer screen, dose series, 48 h
[1] = tested on: 786-0 renal
[2] = tested on: A498 renal
[3] = tested on: A549 NSCLC
[4] = tested on: ACHN renal
[5] = tested on: BT-549 breast
[6] = tested on: CAKI-1 renal
[7] = tested on: CCRF-CEM leukemia
[8] = tested on: COLO 205 colon
[9] = tested on: DU-145 prostate
[10] = tested on: EKVX NSCLC
[11] = tested on: HCC-2998 colon
[12] = tested on: HCT-116 colon
[13] = tested on: HCT-15 colon
[14] = tested on: HL-60(TB) leukemia
[15] = tested on: HOP-62 NSCLC
[16] = tested on: HOP-92 NSCLC
[17] = tested on: HS 578T breast
[18] = tested on: HT29 colon
[19] = tested on: IGROV1 ovarian
[20] = tested on: K-562 leukemia
[21] = tested on: KM12 colon
[22] = tested on: LOX IMVI melanoma
[23] = tested on: M14 melanoma
[24] = tested on: MALME-3M melanoma
[25] = tested on: MCF7 breast
[26] = tested on: MDA-MB-231 breast
[27] = tested on: MDA-MB-435
[28] = tested on: MDA-N
[29] = tested on: MOLT-4 leukemia
[30] = tested on: NCI-H226 lung
[31] = tested on: NCI-H23 lung
[32] = tested on: NCI-H460 lung
[33] = tested on: NCI-H522 lung
[34] = tested on: NCI/ADR-RES ovarian
[35] = tested on: OVCAR-3 ovarian
[36] = tested on: OVCAR-4 ovarian
[37] = tested on: OVCAR-5 ovarian
[38] = tested on: OVCAR-8 ovarian
[39] = tested on: PC-3 prostate
[40] = tested on: RPMI-8226 leukemia
[41] = tested on: RXF 393 renal
[42] = tested on: SF-268 CNS
[43] = tested on: SF-295 CNS
[44] = tested on: SF-539 CNS
[45] = tested on: SK-MEL-2 melanoma
[46] = tested on: SK-MEL-28 melanoma
[47] = tested on: SK-MEL-5 melanoma
[48] = tested on: SK-OV-3 ovarian
[49] = tested on: SN12C renal
[50] = tested on: SNB-19 CNS
[51] = tested on: SNB-75 CNS
[52] = tested on: SR leukemia
[53] = tested on: SW-620 colon
[54] = tested on: T-47D breast
[55] = tested on: TK-10 renal
[56] = tested on: U251 CNS
[57] = tested on: UACC-257 melanoma
[58] = tested on: UACC-62 melanoma
[59] = tested on: UO-31 renal

Q: For `N#CC1(Nc2ccc(-c3ccc(NC4(C#N)CCCC4)cc3)cc2)CCCC1`, which TGI [1] is on record?
A: Its TGI is greater than 100 µM.

Q: What about the TGI [2] of the same molecule?
A: Its TGI is greater than 100 µM.

Q: What about the TGI [3] of the same molecule?
A: The TGI was greater than 100 µM.

Q: And the TGI [4]?
A: Its TGI is greater than 100 µM.

Q: What about the TGI [5] of the same molecule?
A: Its TGI is greater than 100 µM.

Q: What about the TGI [6] of the same molecule?
A: Its TGI is greater than 100 µM.

Q: And the TGI [7]?
A: The TGI was 61.2 µM.

Q: What about the TGI [8] of the same molecule?
A: Its TGI is greater than 100 µM.

Q: And the TGI [9]?
A: Its TGI is greater than 100 µM.

Q: What about the TGI [10] of the same molecule?
A: Its TGI is greater than 100 µM.

Q: What about the TGI [11] of the same molecule?
A: The TGI was greater than 100 µM.

Q: And the TGI [12]?
A: The TGI was greater than 100 µM.

Q: What about the TGI [13] of the same molecule?
A: Its TGI is greater than 100 µM.

Q: And the TGI [14]?
A: Its TGI is greater than 100 µM.

Q: And the TGI [15]?
A: The TGI was greater than 100 µM.

Q: And the TGI [16]?
A: Its TGI is greater than 100 µM.

Q: What about the TGI [17] of the same molecule?
A: Its TGI is greater than 100 µM.

Q: And the TGI [18]?
A: Its TGI is greater than 100 µM.

Q: And the TGI [19]?
A: Its TGI is greater than 100 µM.

Q: And the TGI [20]?
A: Its TGI is greater than 100 µM.

Q: What about the TGI [21] of the same molecule?
A: Its TGI is greater than 100 µM.

Q: And the TGI [22]?
A: The TGI was greater than 100 µM.

Q: And the TGI [23]?
A: The TGI was greater than 100 µM.

Q: What about the TGI [24] of the same molecule?
A: Its TGI is greater than 100 µM.

Q: And the TGI [25]?
A: Its TGI is greater than 100 µM.

Q: What about the TGI [26] of the same molecule?
A: Its TGI is greater than 100 µM.

Q: And the TGI [27]?
A: The TGI was greater than 100 µM.

Q: What about the TGI [28] of the same molecule?
A: Its TGI is greater than 100 µM.

Q: And the TGI [29]?
A: Its TGI is greater than 100 µM.

Q: And the TGI [30]?
A: Its TGI is greater than 100 µM.

Q: What about the TGI [31] of the same molecule?
A: The TGI was greater than 100 µM.

Q: What about the TGI [32] of the same molecule?
A: Its TGI is greater than 100 µM.

Q: What about the TGI [33] of the same molecule?
A: The TGI was greater than 100 µM.

Q: And the TGI [34]?
A: The TGI was greater than 100 µM.

Q: What about the TGI [35] of the same molecule?
A: The TGI was greater than 100 µM.

Q: And the TGI [36]?
A: Its TGI is greater than 100 µM.

Q: What about the TGI [37] of the same molecule?
A: Its TGI is greater than 100 µM.

Q: What about the TGI [38] of the same molecule?
A: Its TGI is greater than 100 µM.

Q: What about the TGI [39] of the same molecule?
A: The TGI was greater than 100 µM.

Q: And the TGI [40]?
A: The TGI was greater than 100 µM.

Q: And the TGI [41]?
A: The TGI was greater than 100 µM.

Q: What about the TGI [42] of the same molecule?
A: Its TGI is greater than 100 µM.

Q: And the TGI [43]?
A: The TGI was greater than 100 µM.

Q: What about the TGI [44] of the same molecule?
A: The TGI was 78.2 µM.

Q: What about the TGI [45] of the same molecule?
A: The TGI was greater than 100 µM.

Q: And the TGI [46]?
A: The TGI was greater than 100 µM.

Q: What about the TGI [47] of the same molecule?
A: Its TGI is greater than 100 µM.

Q: And the TGI [48]?
A: Its TGI is greater than 100 µM.

Q: What about the TGI [49] of the same molecule?
A: Its TGI is greater than 100 µM.

Q: And the TGI [50]?
A: The TGI was greater than 100 µM.

Q: What about the TGI [51] of the same molecule?
A: The TGI was greater than 100 µM.

Q: And the TGI [52]?
A: The TGI was greater than 100 µM.

Q: And the TGI [53]?
A: The TGI was greater than 100 µM.

Q: What about the TGI [54] of the same molecule?
A: Its TGI is greater than 100 µM.

Q: What about the TGI [55] of the same molecule?
A: Its TGI is greater than 100 µM.

Q: And the TGI [56]?
A: Its TGI is greater than 100 µM.

Q: And the TGI [57]?
A: The TGI was greater than 100 µM.

Q: What about the TGI [58] of the same molecule?
A: Its TGI is greater than 100 µM.

Q: And the TGI [59]?
A: The TGI was greater than 100 µM.

Q: What does the source list for `c1cc(CSSCc2ccncc2)ccn1`?
A: TGI [1]: > 100 µM; TGI [2]: > 100 µM; TGI [3]: > 100 µM; TGI [4]: > 100 µM; TGI [5]: > 100 µM; TGI [6]: > 100 µM; TGI [7]: 24.2 µM; TGI [8]: 49.2 µM; TGI [9]: > 66.4 µM; TGI [10]: > 100 µM; TGI [11]: 58.7 µM; TGI [12]: > 100 µM; TGI [13]: > 100 µM; TGI [14]: 42.4 µM; TGI [15]: > 100 µM; TGI [16]: > 100 µM; TGI [17]: 76 µM; TGI [18]: > 100 µM; TGI [19]: > 100 µM; TGI [20]: > 100 µM; TGI [21]: > 100 µM; TGI [22]: > 100 µM; TGI [23]: > 82.6 µM; TGI [24]: > 100 µM; TGI [25]: > 100 µM; TGI [26]: > 100 µM; TGI [27]: > 68.3 µM; TGI [28]: 62.9 µM; TGI [29]: 23.7 µM; TGI [30]: > 85.5 µM; TGI [31]: > 93.2 µM; TGI [32]: > 84.9 µM; TGI [33]: 60.2 µM; TGI [34]: > 85.3 µM; TGI [35]: > 100 µM; TGI [36]: > 100 µM; TGI [37]: > 100 µM; TGI [38]: > 100 µM; TGI [39]: > 100 µM; TGI [40]: > 65.3 µM; TGI [41]: > 75.7 µM; TGI [42]: > 94.3 µM; TGI [43]: > 100 µM; TGI [44]: 50.2 µM; TGI [45]: 82.1 µM; TGI [46]: > 100 µM; TGI [47]: 56.6 µM; TGI [48]: > 100 µM; TGI [49]: > 100 µM; TGI [50]: > 100 µM; TGI [51]: > 100 µM; TGI [52]: 30.3 µM; TGI [53]: > 100 µM; TGI [54]: > 100 µM; TGI [55]: > 100 µM; TGI [56]: > 70.9 µM; TGI [57]: > 100 µM; TGI [58]: > 100 µM; TGI [59]: > 100 µM

Q: Which results are given for `COc1cccc2c3ccccc3c3nc[nH]c3c12`?
A: TGI [1]: > 57.9 µM; TGI [2]: > 90.5 µM; TGI [3]: > 100 µM; TGI [4]: > 100 µM; TGI [5]: > 100 µM; TGI [6]: > 100 µM; TGI [7]: 52.5 µM; TGI [8]: 36.1 µM; TGI [9]: > 100 µM; TGI [10]: > 100 µM; TGI [11]: > 55.6 µM; TGI [12]: > 100 µM; TGI [13]: 97.1 µM; TGI [15]: > 100 µM; TGI [16]: 61.9 µM; TGI [17]: 3.75 µM; TGI [18]: > 100 µM; TGI [19]: > 100 µM; TGI [20]: 28.4 µM; TGI [21]: > 100 µM; TGI [22]: > 100 µM; TGI [23]: > 100 µM; TGI [24]: > 100 µM; TGI [25]: > 100 µM; TGI [26]: > 79.2 µM; TGI [27]: > 94.6 µM; TGI [28]: > 100 µM; TGI [29]: 28.4 µM; TGI [30]: > 95 µM; TGI [31]: > 100 µM; TGI [32]: > 69.2 µM; TGI [33]: > 70.1 µM; TGI [34]: > 100 µM; TGI [35]: > 100 µM; TGI [36]: > 100 µM; TGI [37]: > 100 µM; TGI [38]: > 100 µM; TGI [39]: > 100 µM; TGI [40]: 44.5 µM; TGI [41]: > 100 µM; TGI [42]: > 100 µM; TGI [43]: 46.4 µM; TGI [44]: 52 µM; TGI [45]: > 100 µM; TGI [46]: > 77.2 µM; TGI [47]: 30.4 µM; TGI [48]: > 100 µM; TGI [49]: > 100 µM; TGI [50]: > 100 µM; TGI [51]: > 100 µM; TGI [52]: 46.6 µM; TGI [53]: > 71.2 µM; TGI [54]: > 100 µM; TGI [55]: > 75.4 µM; TGI [56]: > 100 µM; TGI [57]: > 63.8 µM; TGI [58]: > 100 µM; TGI [59]: > 100 µM
